From PubChem BioAssay (NCI)
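96-well plates; 48 h exposure; 5 concentrations. Endpoints by linear interpolation between flanking doses. Not reached: highest tested concentration assigned. TGI is the concentration that stops growth completely.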

Key:
Experiment in all cases: growth of human tumour cells (NCI), 48 h
[1] = tested on: CAKI-1 renal
[2] = tested on: PC-3 prostate
[3] = tested on: NCI-H226 lung
[4] = tested on: EKVX NSCLC
[5] = tested on: RXF 393 renal
[6] = tested on: BT-549 breast
[7] = tested on: SF-539 CNS
[8] = tested on: A549 NSCLC
[9] = tested on: HCT-116 colon
[10] = tested on: SF-268 CNS

For `COC1(CC[C@H](C)COC2OC(CO)C(O)C(O)C2O)O[C@H]2C[C@H]3[C@@H]4CC=C5C[C@@H](OC6OC(CO)C(O)C(OC7OC(CO)C(O)C(O)C7O)C6OC6OC(C)C(O)C(O)C6O)CC[C@]5(C)[C@H]4CC[C@]3(C)[C@H]2[C@@H]1C` (stereo not given in full), the TGI [1] was 10.4 µM, the TGI [2] was 16.6 µM and the TGI [3] was 18.6 µM. It also gave a TGI [4] of over 51 µM, a TGI [5] of 16.3 µM and a TGI [6] of 22.5 µM. For the same compound, the TGI [7] was 4.85 µM, the TGI [8] was 7.27 µM and the TGI [9] was over 32.4 µM. It also gave a TGI [10] of 15.2 µM.

`O=c1[nH]c(=O)n(C/C=C/CBr)nc1Br` was tested, and the TGI [1] was 24.9 µM, the TGI [2] was 24.6 µM and the TGI [3] was 27.8 µM. For the same compound, the TGI [4] was 28.8 µM, the TGI [5] was 25.4 µM and the TGI [6] was 27.7 µM. The TGI [7] was 27.7 µM, the TGI [8] was 30.8 µM and the TGI [9] was 26.3 µM. The TGI [10] was 28.5 µM.

`CC(=O)Oc1c(C)c2c(c3ccccc13)OC(C)(C)C2` was tested, and the TGI [1] was 40.3 µM, the TGI [2] was 47.2 µM and the TGI [3] was 40.7 µM. For the same compound, the TGI [4] was 34 µM, the TGI [5] was 35.9 µM and the TGI [6] was 39.4 µM. It also gave a TGI [7] of 37.3 µM, a TGI [8] of 33.9 µM and a TGI [9] of 42.9 µM. For the same compound, the TGI [10] was 28.8 µM.

Work on `COc1ccc(Nc2nc3ccccc3nc2C(=O)O)cc1OC` yielded a TGI [1] of over 100 µM, a TGI [2] of over 100 µM and a TGI [3] of over 100 µM. For the same compound, the TGI [4] was over 100 µM, the TGI [5] was over 100 µM and the TGI [6] was over 100 µM. The TGI [7] was over 100 µM, the TGI [8] was over 100 µM and the TGI [9] was over 100 µM. For the same compound, the TGI [10] was over 100 µM.

With `O=C1NC(S(=O)(=O)O)=NNC12c1ccccc1-c1ccccc12` the TGI [1] was over 10 µM, the TGI [2] was over 10 µM and the TGI [3] was over 10 µM. It also gave a TGI [4] of over 10 µM, a TGI [5] of over 10 µM and a TGI [6] of over 10 µM. For the same compound, the TGI [7] was over 10 µM, the TGI [8] was over 10 µM and the TGI [9] was over 10 µM. The TGI [10] was over 10 µM.

In the case of `Cc1cc(C)n(C(=O)CSc2nnc(SCC(=O)n3nc(C)cc3C)s2)n1`, the TGI [1] is reported as over 100 µM, the TGI [2] is reported as over 100 µM and the TGI [3] is reported as over 100 µM. For the same compound, the TGI [4] was over 100 µM, the TGI [5] was over 100 µM and the TGI [6] was over 100 µM. For the same compound, the TGI [7] was over 100 µM, the TGI [8] was over 100 µM and the TGI [9] was over 100 µM. The TGI [10] was over 100 µM.

Work on `O=C(N/N=C(/COc1cccc(Cl)c1)N=Cc1cccnc1)c1ccncc1` yielded a TGI [1] of over 100 µM, a TGI [2] of over 100 µM and a TGI [3] of over 100 µM. The TGI [4] was over 100 µM, the TGI [5] was over 100 µM and the TGI [6] was over 100 µM. It also gave a TGI [7] of over 100 µM, a TGI [8] of over 100 µM and a TGI [9] of over 100 µM. It also gave a TGI [10] of over 100 µM.

For `CCCCCCCCCc1c(O)c(O)c(CCCCCCCCC)c(CCCCCCCCC)c1CCCCCCCCC`, the TGI [1] was over 100 µM, the TGI [2] was over 100 µM and the TGI [3] was over 100 µM. The TGI [4] was over 100 µM, the TGI [5] was over 100 µM and the TGI [6] was over 100 µM. For the same compound, the TGI [7] was over 100 µM, the TGI [8] was over 100 µM and the TGI [9] was over 100 µM. It also gave a TGI [10] of over 100 µM.

With `NC(N)=NS(=O)(=O)c1ccc(NC(=O)c2ccc3[nH]c4ccccc4c(=O)c3c2)cc1` the TGI [1] was over 100 µM, the TGI [2] was over 100 µM and the TGI [3] was over 100 µM. It also gave a TGI [4] of over 100 µM, a TGI [5] of over 100 µM and a TGI [6] of over 100 µM. For the same compound, the TGI [7] was over 100 µM, the TGI [8] was over 100 µM and the TGI [9] was over 100 µM. The TGI [10] was over 100 µM.

In the case of `COc1ccc2c(CCNS(=O)(=O)c3ccccc3)c(C(C)=O)[nH]c2c1`, the TGI [1] is reported as over 100 µM, the TGI [2] is reported as over 100 µM and the TGI [3] is reported as over 100 µM. For the same compound, the TGI [4] was over 100 µM, the TGI [5] was over 100 µM and the TGI [6] was over 100 µM. For the same compound, the TGI [7] was over 100 µM, the TGI [8] was over 100 µM and the TGI [9] was over 100 µM. For the same compound, the TGI [10] was over 100 µM.

`COc1cc(C23OCC(Cc4cc5c(cc42)OCO5)C3CO)cc(OC)c1OC` (stereo not given) gave a TGI [1] of over 100 µM, a TGI [2] of over 100 µM and a TGI [3] of over 100 µM. The TGI [4] was over 100 µM, the TGI [5] was 8.03 µM and the TGI [6] was over 100 µM. For the same compound, the TGI [7] was 26.2 µM, the TGI [8] was over 100 µM and the TGI [9] was over 100 µM. The TGI [10] was over 100 µM.

In the case of `c1ccc(C2=Nc3cccc4cccc(c34)N2)cc1`, the TGI [1] is reported as over 94.6 µM, the TGI [2] is reported as 68 µM and the TGI [3] is reported as over 100 µM. The TGI [4] was over 100 µM, the TGI [5] was 45.6 µM and the TGI [6] was over 85.7 µM. The TGI [7] was over 100 µM, the TGI [8] was over 100 µM and the TGI [9] was 50.8 µM. The TGI [10] was over 90.6 µM.

For `O=[N+]([O-])c1cccc2nc3ccccc3c(NCCCN3CCCCC3)c12`, the TGI [1] was 0.496 µM, the TGI [2] was 0.0305 µM and the TGI [3] was 0.0553 µM. The TGI [4] was 0.0401 µM, the TGI [5] was 0.0246 µM and the TGI [6] was 0.114 µM. The TGI [7] was 0.0451 µM, the TGI [8] was 0.115 µM and the TGI [9] was 0.0629 µM. For the same compound, the TGI [10] was 0.199 µM.

For `NC(=S)NS(=O)(=O)c1ccc(F)cc1F`, the TGI [1] was over 100 µM, the TGI [2] was over 100 µM and the TGI [3] was over 100 µM. The TGI [4] was over 100 µM, the TGI [5] was over 100 µM and the TGI [6] was over 100 µM. It also gave a TGI [7] of over 100 µM, a TGI [8] of over 100 µM and a TGI [9] of over 100 µM. For the same compound, the TGI [10] was over 100 µM.

`CC1=CC(C)(C)Nc2ccc(CSc3ccccc3)cc21` gave a TGI [1] of over 100 µM, a TGI [2] of 89.8 µM and a TGI [3] of over 100 µM. It also gave a TGI [4] of 59.9 µM, a TGI [5] of 38.3 µM and a TGI [6] of over 100 µM. The TGI [7] was over 100 µM, the TGI [8] was 51.4 µM and the TGI [9] was 91.9 µM. It also gave a TGI [10] of over 100 µM.

`O=C(CCOS(=O)(=O)CF)N1CCN(C(=O)CCOS(=O)(=O)CF)CC1` showed a TGI [1] of over 100 µM, a TGI [2] of over 100 µM and a TGI [3] of over 100 µM. The TGI [4] was over 100 µM, the TGI [5] was over 100 µM and the TGI [6] was over 100 µM. For the same compound, the TGI [7] was over 100 µM, the TGI [8] was over 100 µM and the TGI [9] was over 100 µM. It also gave a TGI [10] of over 100 µM.

`COc1ccc(CNC(=O)[C@H](Cc2ccc(O)cn2)NC(C)=O)cc1` showed a TGI [1] of over 100 µM, a TGI [2] of over 100 µM and a TGI [3] of over 100 µM. For the same compound, the TGI [4] was over 100 µM, the TGI [5] was over 100 µM and the TGI [6] was over 100 µM. It also gave a TGI [7] of over 100 µM, a TGI [8] of over 100 µM and a TGI [9] of over 100 µM. For the same compound, the TGI [10] was over 100 µM.

For `COC(=O)c1cc(C)n(CN(Cc2ccccc2)Cn2nc(C(=O)OC)cc2C)n1`, the TGI [1] was over 100 µM, the TGI [2] was over 100 µM and the TGI [3] was over 100 µM. The TGI [4] was over 100 µM, the TGI [5] was 98 µM and the TGI [6] was over 100 µM. For the same compound, the TGI [7] was over 68.7 µM, the TGI [8] was over 100 µM and the TGI [9] was over 59.8 µM. The TGI [10] was over 100 µM.

Work on `COc1cccc2cc(C(=O)Nc3ccccn3)c(=N)oc12` yielded a TGI [1] of over 100 µM, a TGI [2] of over 100 µM and a TGI [3] of over 100 µM. The TGI [4] was over 100 µM, the TGI [5] was over 100 µM and the TGI [6] was over 100 µM. For the same compound, the TGI [7] was over 100 µM, the TGI [8] was over 100 µM and the TGI [9] was over 100 µM. It also gave a TGI [10] of over 100 µM.
